# Measurements taken from the supplement of paper PMC12533247.
# ± gives the standard deviation of the averaged measurements.
# Test system: HSV-1 K26-GFP infected primary human skin cells
# Experiment: % change of HSV-1 GFP signal vs untreated infected cells; higher = less antiviral inhibition
# Settings: cell type: primary dermal fibroblasts, time (h post infection): 48
# Protocol: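 2D primary donor-derived dermal fibroblasts infected with GFP-HSV-1 K26 at MOI 1, treated 1 h later with compound dilutions and read at 48 hpi on IncuCyte. GFP integrated intensity is normalised to mock-infected and untreated infected wells (% change; -100 = full inhibition).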
SMILES,"% change of HSV-1 GFP signal (0.003 µM, donor: 3) [%]","% change of HSV-1 GFP signal (0.003 µM, donor: 4) [%]","% change of HSV-1 GFP signal (0.0091 µM, donor: 3) [%]","% change of HSV-1 GFP signal (0.0091 µM, donor: 4) [%]","% change of HSV-1 GFP signal (0.0274 µM, donor: 3) [%]","% change of HSV-1 GFP signal (0.0274 µM, donor: 4) [%]","% change of HSV-1 GFP signal (0.0823 µM, donor: 3) [%]","% change of HSV-1 GFP signal (0.0823 µM, donor: 4) [%]","% change of HSV-1 GFP signal (0.2469 µM, donor: 3) [%]","% change of HSV-1 GFP signal (0.2469 µM, donor: 4) [%]","% change of HSV-1 GFP signal (0.7407 µM, donor: 3) [%]","% change of HSV-1 GFP signal (0.7407 µM, donor: 4) [%]","% change of HSV-1 GFP signal (2.2222 µM, donor: 3) [%]","% change of HSV-1 GFP signal (2.2222 µM, donor: 4) [%]","% change of HSV-1 GFP signal (6.6667 µM, donor: 3) [%]","% change of HSV-1 GFP signal (6.6667 µM, donor: 4) [%]","% change of HSV-1 GFP signal (20 µM, donor: 3) [%]","% change of HSV-1 GFP signal (20 µM, donor: 4) [%]","% change of HSV-1 GFP signal (60 µM, donor: 3) [%]","% change of HSV-1 GFP signal (60 µM, donor: 4) [%]","% change of HSV-1 GFP signal (0.001 µM, donor: 3) [%]","% change of HSV-1 GFP signal (0.001 µM, donor: 4) [%]"
O=C(Nc1ccc([N+](=O)[O-])cc1Cl)c1cc(Cl)ccc1O [Niclosamide],15.6 ± 15,-6.77 ± 3.6,8.69 ± 12,-8.38 ± 4.5,9.83 ± 17,-13.9 ± 6.8,-4.14 ± 13,-18.7 ± 8.7,-45.2 ± 31,-48.5 ± 15,-76.3 ± 20,-63.1 ± 35,-89.3 ± 9.7,-95.5 ± 6.9,-99.57 ± 0.93,-99.828 ± 0.074,-100.1 ± 0.58,-99.921 ± 0.007,-100.1 ± 0.63,-99.98 ± 0.017,,
Cc1nc(N(C)C(=O)Cc2ccc(-c3ccccn3)cc2)sc1S(N)(=O)=O [Pritelivir],1.04 ± 12,-0.451 ± 6.2,-2.12 ± 11,-4.4 ± 5,-9.3 ± 18,-16.7 ± 3.4,-30 ± 18,-36.8 ± 14,-61 ± 13,-74.4 ± 9.5,-81.3 ± 8.3,-91.2 ± 7.4,-90.9 ± 9.8,-99.47 ± 0.72,-93.7 ± 8.7,-99.82 ± 0.19,-98.48 ± 0.79,-99.71 ± 0.27,,,4.72 ± 8.3,1.2 ± 5.1
CC1(C)CC(=O)c2c(C(F)(F)F)nn(-c3ccc(C(N)=O)c(N[C@H]4CC[C@H](O)CC4)c3)c2C1 [SNX-2112],2.41 ± 10,7.68 ± 19,3.09 ± 24,10 ± 30,-21.5 ± 25,-8.2 ± 12,-87.9 ± 5.2,-77.6 ± 1.4,-98.67 ± 0.4,-98.8 ± 1,-99.34 ± 0.5,-99.59 ± 0.4,-99.32 ± 0.49,-99.73 ± 0.3,-99.47 ± 0.27,-99.66 ± 0.37,-99.48 ± 0.42,-99.71 ± 0.22,,,3.58 ± 4.6,7.21 ± 14
O=C(/C=C\n1cnc(-c2cc(C(F)(F)F)cc(C(F)(F)F)c2)n1)NNc1ccccn1 [Verdinexor],3.24 ± 5.4,-6.87 ± 5.1,5.63 ± 4.6,-5.59 ± 9.3,3.47 ± 1.8,-11.5 ± 8.2,-1.6 ± 11,-10.8 ± 5.7,-1.84 ± 3.6,-12 ± 2.1,-13.6 ± 4,-15.2 ± 4.7,-31.7 ± 6,-33.3 ± 11,-34.8 ± 8.4,-32.3 ± 15,-49 ± 24,-21.8 ± 2.3,,,2.8 ± 12,-3.59 ± 3.6
